Test results as given in PubChem BioAssay AID624108 (Broad Institute, 2012).
The source made the active and inactive calls. No rule for the calls is given here.

target: Glycogen synthase kinase-3 beta (Homo sapiens) (UniProt P49841); test: binding affinity to recombinant GSK3beta – biophysical, surface plasmon resonance, microfluidics, dry powder samples, dose response (AID 624108)
Sequence (P49841 whole entry, looked up): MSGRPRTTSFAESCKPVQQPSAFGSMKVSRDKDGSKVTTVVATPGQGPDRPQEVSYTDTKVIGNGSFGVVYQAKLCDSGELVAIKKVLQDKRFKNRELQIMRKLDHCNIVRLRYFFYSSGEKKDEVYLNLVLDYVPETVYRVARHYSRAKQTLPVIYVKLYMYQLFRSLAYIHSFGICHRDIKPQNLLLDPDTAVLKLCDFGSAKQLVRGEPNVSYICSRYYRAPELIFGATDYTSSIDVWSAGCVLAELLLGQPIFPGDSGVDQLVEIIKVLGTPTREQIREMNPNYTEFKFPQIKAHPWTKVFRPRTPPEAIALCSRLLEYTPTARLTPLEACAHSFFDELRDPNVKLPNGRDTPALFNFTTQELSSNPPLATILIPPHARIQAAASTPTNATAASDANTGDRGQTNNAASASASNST

Row | Kd | Compound
1 | 15 nM | Cc1[nH]nc2c1[C@H](c1ccccc1C(F)(F)F)C1=C(CC(C)(C)CC1=O)N2
2 | > 5000 nM (inactive) | Cc1[nH]nc2c1C(c1ccc(Br)cn1)C1=C(CC(C)(C)CC1=O)N2 (configuration not stated)
3 | > 5000 nM (inactive) | Cc1[nH]nc2c1[C@@H](c1cccs1)C1=C(CC(C)(C)CC1=O)N2
4 | inactive | Cc1[nH]nc2c1C(c1ccc(F)cc1)C1=C(CC(C)(C)CC1=O)N2 (configuration not stated)
5 | 270 nM | Cc1[nH]nc2c1C(c1cccnc1)C1=C(CC(C)(C)CC1=O)N2 (configuration not stated)
6 | 890 nM | Cc1[nH]nc2c1C(c1ccccc1Cl)C1=C(CC(C)(C)CC1=O)N2 (configuration not stated)
7 | 802 nM | Cc1cccc(C2C3=C(CC(C)(C)CC3=O)Nc3n[nH]c(C)c32)c1 (configuration not stated)
8 | 390 nM | Cc1[nH]nc2c1C(c1ccccn1)C1=C(CC(C)(C)CC1=O)N2 (configuration not stated)
9 | 450 nM | Cc1[nH]nc2c1C(c1ccsc1)C1=C(CC(C)(C)CC1=O)N2 (configuration not stated)
10 | > 5000 nM (inactive) | Cc1[nH]nc2c1[C@@H](c1ccccc1C(F)(F)F)C1=C(CC(C)(C)CC1=O)N2
11 | 49 nM | Cc1[nH]nc2c1C(c1ccccc1C(F)(F)F)C1=C(CC(C)(C)CC1=O)N2 (configuration not stated)
12 | 421 nM | Cc1[nH]nc2c1[C@H](c1cccs1)C1=C(CC(C)(C)CC1=O)N2
13 | inactive | Cc1ccc(C2C3=C(CC(C)(C)CC3=O)Nc3n[nH]c(C)c32)cc1 (configuration not stated)
14 | inactive | Cc1[nH]nc2c1C(c1cccc(F)c1)C1=C(CC(C)(C)CC1=O)N2 (configuration not stated)
15 | > 5000 nM (inactive) | Cc1[nH]nc2c1C(c1ccn[nH]1)C1=C(CC(C)(C)CC1=O)N2 (configuration not stated)
16 | inactive | Cc1[nH]nc2c1C(c1ccc(Cl)cc1)C1=C(CC(C)(C)CC1=O)N2 (configuration not stated)
17 | 223 nM | Cc1ccccc1C1C2=C(CC(C)(C)CC2=O)Nc2n[nH]c(C)c21 (configuration not stated)
18 | > 5000 nM (inactive) | Cc1[nH]nc2c1C(c1ccccc1C#N)C1=C(CC(C)(C)CC1=O)N2 (configuration not stated)
19 | 60 nM | COc1ccccc1C1C2=C(CC(C)(C)CC2=O)Nc2n[nH]c(C)c21 (configuration not stated)
20 | 40 nM | Cc1[nH]nc2c1C(c1ccccc1Br)C1=C(CC(C)(C)CC1=O)N2 (configuration not stated)
21 | 331 nM | Cc1[nH]nc2c1C(c1cccc(C#N)c1)C1=C(CC(C)(C)CC1=O)N2 (configuration not stated)
22 | 360 nM | Cc1[nH]nc2c1C(c1cccc(Cl)c1)C1=C(CC(C)(C)CC1=O)N2 (configuration not stated)

Further lines, the molecule ahead of its results:

Row | Compound | Kd
23 | Cc1[nH]nc2c1C(C)C1=C(CC(C)(C)CC1=O)N2 (configuration not stated) | > 5000 nM (inactive)
24 | COc1ccccc1C1C2=C(CC(C)(C)CC2=O)Nc2n[nH]c(-c3ccccc3)c21 (configuration not stated) | inactive
25 | Cc1[nH]nc2c1C(c1cccc(C(F)(F)F)c1)C1=C(CC(C)(C)CC1=O)N2 (configuration not stated) | inactive
26 | CC1(C)CC(=O)C2=C(C1)Nc1n[nH]c(C(F)(F)F)c1C2c1cc(F)ccc1OC(F)(F)F (configuration not stated) | 627 nM
27 | COc1ccccc1-c1c2c(nc3n[nH]c(C)c13)CCC2=O | > 5000 nM (inactive)
28 | CC1(C)CC(=O)C2=C(C1)Nc1n[nH]c(C(F)(F)F)c1C2c1ccc(F)cc1C(F)(F)F (configuration not stated) | 202 nM
29 | COc1cccc(C2C3=C(CC(C)(C)CC3=O)Nc3n[nH]c(C)c32)c1 (configuration not stated) | > 5000 nM (inactive)
30 | CC1(C)CC(=O)C2=C(C1)Nc1n[nH]c(C(F)(F)F)c1C2c1cccc(F)c1C(F)(F)F (configuration not stated) | 822 nM
31 | COc1ccccc1C1C2=C(CC(C)(C)CC2=O)Nc2onc(C)c21 (configuration not stated) | > 5000 nM (inactive)
32 | Cc1[nH]nc2c1C(c1ccc(C#N)cc1)C1=C(CC(C)(C)CC1=O)N2 (configuration not stated) | inactive
33 | CC1(C)CC(=O)C2=C(C1)Nc1n[nH]c(C(F)(F)F)c1C2c1cc(F)ccc1C(F)(F)F (configuration not stated) | 150 nM
34 | CC1(C)CC(=O)C2=C(C1)Nc1n[nH]c(C(F)(F)F)c1C2c1c(F)cccc1F (configuration not stated) | > 5000 nM (inactive)
35 | Cc1[nH]nc2c1C(c1ccc3c(c1)OCO3)C1=C(CC(C)(C)CC1=O)N2 (configuration not stated) | inactive
36 | Cc1[nH]nc2nc3c(cc12)C(=O)CC(C)(C)C3 | > 5000 nM (inactive)
37 | COc1ccc(C2C3=C(CC(C)(C)CC3=O)Nc3n[nH]c(C)c32)cc1 (configuration not stated) | inactive
38 | CC1(C)CC(=O)C2=C(C1)Nc1n[nH]c(C(F)(F)F)c1C2c1cc(F)ccc1F (configuration not stated) | 424 nM
39 | COc1ccccc1C1C2=C(CCCC2=O)Nc2n[nH]c(C)c21 (configuration not stated) | > 5000 nM (inactive)
40 | Cc1[nH]nc2c1C(C1CCCCC1)C1=C(CC(C)(C)CC1=O)N2 (configuration not stated) | > 5000 nM (inactive)
41 | COc1ccccc1C1C(C(C)=O)=C(C)Nc2n[nH]c(C)c21 (configuration not stated) | > 5000 nM (inactive)
42 | CC1(C)CC(=O)/C(=C\c2ccccc2C(F)(F)F)C(=Nc2cc(C(F)(F)F)[nH]n2)C1 | > 5000 nM (inactive)
43 | Cc1[nH]nc2c1C(c1ccc(Cl)s1)C1=C(CC(C)(C)CC1=O)N2 (configuration not stated) | 520 nM
44 | Cc1[nH]nc2c1C(c1cccc3nonc13)C1=C(CC(C)(C)CC1=O)N2 (configuration not stated) | > 5000 nM (inactive)
45 | CC1(C)CC(=O)C2=C(C1)Nc1n[nH]c(C(F)(F)F)c1C2c1ccccc1 (configuration not stated) | 113 nM

Row | Compound | Kd
46 | Cc1[nH]nc2c1C(c1ccc(C(F)(F)F)cc1)C1=C(CC(C)(C)CC1=O)N2 (configuration not stated) | 368 nM
47 | Cc1[nH]nc2c1C(C)(c1ccccc1)C1=C(CC(C)(C)CC1=O)N2 (configuration not stated) | 149 nM
48 | COc1ccccc1C1C2=C(CC3(CCCCC3)CC2=O)Nc2n[nH]c(C)c21 (configuration not stated) | > 5000 nM (inactive)
49 | COc1ccccc1C1C2=C(CC(C)(C)CC2=O)Nc2n[nH]c(C(C)C)c21 (configuration not stated) | inactive
50 | COc1ccccc1[C@H]1C2=C(CC(C)(C)CC2=O)Nc2n[nH]c(C(F)(F)F)c21 | inactive
51 | Cc1[nH]nc2c1C(c1ccc(F)cc1Cl)C1=C(CC(C)(C)CC1=O)N2 (configuration not stated) | > 5000 nM (inactive)
52 | COc1ccccc1C1C2=C(CC(C)(C)CC2=O)Nc2n[nH]c(C(C)(C)C)c21 (configuration not stated) | 585 nM
53 | COc1ccccc1C1C2=C(CC(C)(C)CC2=O)Nc2[nH]ncc21 (configuration not stated) | 173 nM
54 | COc1ccccc1C1C2=C(CC(C)(C)CC2=O)Nc2n[nH]c(C(F)(F)F)c21 (configuration not stated) | 102 nM
55 | Cc1[nH]nc2c1C(c1cccs1)C1C(=O)CC(C)(C)CC1=N2 (configuration not stated) | 420 nM
56 | CC1(C)CC(=O)C2=C(C1)Nc1n[nH]c(C(F)(F)F)c1C2c1ccccc1C(F)(F)F (configuration not stated) | 122 nM
57 | COc1ccccc1C1C2=C(CC(C)(C)CC2=O)Nc2ccccc21 (configuration not stated) | > 5000 nM (inactive)
58 | CCc1[nH]nc2c1C(c1ccccc1OC)C1=C(CC(C)(C)CC1=O)N2 (configuration not stated) | > 5000 nM (inactive)
59 | COc1ccccc1[C@@H]1C2=C(CC(C)(C)CC2=O)Nc2n[nH]c(C(F)(F)F)c21 | 31 nM
60 | COc1ccccc1C1C2=C(CCC(C)(C)C2=O)Nc2n[nH]c(C)c21 (configuration not stated) | 305 nM
61 | CC1(C)CC(=O)C2=C(C1)Nc1n[nH]c(C(F)(F)F)c1C2(C)c1ccccc1 (configuration not stated) | > 5000 nM (inactive)
62 | CC1(C)CC(=O)/C(=C\c2cccc(F)c2C(F)(F)F)C(=Nc2cc(C(F)(F)F)[nH]n2)C1 | 40 nM
63 | Cc1[nH]nc2c1C(C1CC1)C1=C(CC(C)(C)CC1=O)N2 (configuration not stated) | > 5000 nM (inactive)
64 | Cc1[nH]nc2nc3c(c(-c4cccs4)c12)C(=O)CC(C)(C)C3 | 24 nM
65 | CC1(C)CC(=O)C2=C(C1)Nc1n[nH]c(C(F)(F)F)c1C2c1ccccc1F (configuration not stated) | > 5000 nM (inactive)
66 | Cc1[nH]nc2nc3c(c(-c4ccccc4)c12)C(=O)CC(C)(C)C3 | 13 nM
67 | COc1ccccc1/C=C1\C(=O)CC(C)(C)CC1=Nc1cc(C(F)(F)F)[nH]n1 | > 5000 nM (inactive)
